Among the data in patent US6239131A, “1,5 Benzodiazepine derivatives” (Zeria Pharmaceutical Co., Ltd., priority 1996, dated 2001) are inhibition in vivo and Ki values, retold here.

Structures are written as SMILES.

Experiment [1] concerns pentagastrin-stimulated acid secretion. The experiment in a line: Measurement of Inhibition of Pentagastrin-stimulated Acid Secretion. Type of experiment: in vivo, male Sprague-Dawley (SD)-strain rats. As to conditions: intraduodenal, rat, acid output from 1 to 4 hours after administration, pentagastrin 15 μg/kg/hr. How it is done:
Male Sprague-Dawley (SD)-strain rats were used. Each rat was operated to ligate the pylorus, and equip with a duodenal catheter and gastric fistula under a ether anesthesia. After the operation, each rat was placed in a Bollman-type cage and continuously infused pentagastrin (15 μg/kg/hr) through the tail vein. Test compounds were suspended in 0.5% aqueous sodium carboxymethylcellulose (which hereinafter be abbreviated as "vehicle"). Vehicle or test compound was administered through the intraduodenal catheter 1 hour after the beginning of pentagastrin infusion. Acidity of the collected gastric juice was measured by an automatic titillation device. Acid output was determined by multiplying the volume by the acidity of gastric juice. […] [formula]

The target in a further experiment is T1, CCK-A receptors (Cavia porcellus, UniProt Q63931).
T1 construct: Pancreases were removed from Hartley-strain guinea pigs, the pancreases were homogenized; from tissue; host or cells: pancreas of Hartley-strain guinea pigs, crude membrane pellet
T1 sequence (Q63931 1-430): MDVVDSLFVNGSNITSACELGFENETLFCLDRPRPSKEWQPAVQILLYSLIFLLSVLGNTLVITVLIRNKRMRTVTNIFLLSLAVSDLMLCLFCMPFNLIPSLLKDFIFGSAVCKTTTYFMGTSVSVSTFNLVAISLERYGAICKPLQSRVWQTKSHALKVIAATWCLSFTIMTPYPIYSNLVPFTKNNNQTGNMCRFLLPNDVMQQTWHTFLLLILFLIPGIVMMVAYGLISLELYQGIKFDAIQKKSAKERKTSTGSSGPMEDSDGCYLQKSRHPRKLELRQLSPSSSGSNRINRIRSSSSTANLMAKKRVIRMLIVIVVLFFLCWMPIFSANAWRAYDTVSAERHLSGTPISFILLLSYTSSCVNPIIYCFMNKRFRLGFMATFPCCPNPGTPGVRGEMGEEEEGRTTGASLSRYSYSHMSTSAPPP
The experiment in a line: Measurement of Binding Affinity for CCK-A Receptors. Further details: species or system Hartley-strain guinea pig. The conditions noted are these: inhibition of specific [3H]L-364,718 (0.2 nM) binding; guinea pig pancreas; 25° C., 2 hours; pH 6.5. How it is done: Pancreases were removed from Hartley-strain guinea pigs, the pancreases were homogenized in 40 volumes of 10 mM PIPES buffer (pH 6.5, which hereinafter be abbreviated as "solvent") containing 1 mM EGTA, 30 mM MgCl2, 0.02% bacitracin, 0.02% soybean trypsin inhibitor and 0.3 M sucrose. The homogenate was filtrated through gauze and centrifuged at 50000×g for 10 minutes. Solvent was added to the pellet and recentrifuged as above. The final pellet thus obtained was homogenized in 40 volumes of solvent and used as the receptor preparation.
Binding assay was measured as follows. Fifty μl of [^3 H]L-364, 718 (at the final concentration of 0.2 nM) and 900 μl of the receptor preparation (50 μg protein/tube) were added to 50 μl of solvent, or L-364, 718 (1 μM) or a test compound. This mixture was incubated at 25° C. for 2 hours. After the reaction, the mixture was filtrated through Whatman GF/B filter presoaked in 0.1% BSA (bovine serum albumin). The filter was washed with 3 ml of ice-cold 10 mM PIPES buffer (pH 6.5) three times, immediately after the filtration. The filter was soaked in the ACS-II scintillation cocktail for one day and radioactivity was measured using a liquid scintillation counter. Non-specific binding was defined as the radioactivity in the presence of 1 μM L-364, 718. Specific binding was defined as the difference between total binding (used solvent without L-364, 718) and non-specific binding. lnhibitor dissociation constant (Ki) of each test compound was determined from the inhibition of specific [^3 H]L-364, 718 binding.

In a further experiment the target is T2, CCK-B receptors (Cavia porcellus, UniProt H0VZC5).
T2 construct: Cerebral cortices were removed from Hartley-strain guinea pigs, the cerebral cortices were homogenized; from tissue; host or cells: cerebral cortex of Hartley-strain guinea pigs, crude membrane pellet
T2 sequence (H0VZC5 1-426): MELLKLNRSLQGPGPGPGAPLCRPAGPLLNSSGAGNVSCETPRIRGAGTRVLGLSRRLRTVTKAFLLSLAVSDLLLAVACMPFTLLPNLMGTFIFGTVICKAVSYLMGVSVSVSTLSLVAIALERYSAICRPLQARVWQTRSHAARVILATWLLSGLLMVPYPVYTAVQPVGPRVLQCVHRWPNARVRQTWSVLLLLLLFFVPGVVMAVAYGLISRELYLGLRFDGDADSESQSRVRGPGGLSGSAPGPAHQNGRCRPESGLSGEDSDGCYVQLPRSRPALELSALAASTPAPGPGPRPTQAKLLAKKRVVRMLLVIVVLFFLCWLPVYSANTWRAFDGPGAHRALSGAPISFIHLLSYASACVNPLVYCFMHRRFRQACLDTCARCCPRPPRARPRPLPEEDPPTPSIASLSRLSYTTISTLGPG
The experiment can be described thus: Measurement of Binding Affinity for CCK-B Receptors. As to conditions: inhibition of specific [3H]CCK-8 (1.0 nM) binding; guinea pig cerebral cortex; 25° C., 2 hours; pH 6.5; read-out: Ki (CCK-B receptors). Set-up: species or system Hartley-strain guinea pig.

Experimental for CCK-B receptors: Cerebral cortices were removed from Hartley-strain guinea pigs, the cerebral cortices were homogenized in 50 volumes of 50 mM Tris-HCl buffer (pH7.4) and centrifuged at 50000×g for 10 minutes. The Tris-HCl buffer was added to the pellet and recentrifuged as above two times. The final pellet was rehomogenized in 10 mM HEPES buffer (pH 6.5, which hereinafter be abbreviated as "solvent") containing 5 mM MgCl2, 1 mM EGTA, 0.25 mg/ml bacitracin and 130 mM NaCl, and used as the receptor preparation.
Binding assay was measured as follows. Fifty μl of [^3 H]CCK-8 (at the final concentration of 1.0 nM) and 900 μl of the receptor preparation (800 μg protein/tube) were added to 50 μl of either solvent, CCK-8 (1 μM) or a test compound. These ware reacted at 25° C. for 2 hours. After the reaction, the mixture was filtrated through Whatman GF/B filter presoaked in 0.1% BSA. The filter was washed with 3 ml of ice-cold 50 mM Tris-HCl buffer (pH 7.4) four times, immediately after the filtration. The filter was soaked in the ACS-II scintillation cocktail for a day and radioactivity was measured using a liquid scintillation counter. Non-specific binding was defined as the radioactivity in the presence of 1 μM CCK-8. Specific binding was defined as the difference between total binding (used solvent without CCK-8) and non-specific binding. Inhibitor dissociation constant (Ki) of each test compound was determined from the inhibition of specific [^3 H]CCK-8 binding.

Broadly, the inhibition in vivo is the share of the control response that was lost under treatment. Read a high inhibition in vivo as a response far below the control. One may read the Ki as a measure of affinity in units of concentration, obtained from inhibition or displacement. In experiment [1] (30 mg/kg), `Cc1ccc2c(c1)N(CC(=O)c1ccccc1C)C(=O)C(NC(=O)Nc1cccc(C(=O)O)c1)CN2C(=O)C1CCCC1` (stereo not drawn) [Example 87, 3-[3-[1-(2-toluoylmethyl)-2-oxo-5-cyclopentylcarbonyl-8-methyl-1,3,4,5-tetrahydro-2H-1,5-benzodiazepin-3-yl]ureido]benzoic acid] had an inhibition in vivo at 30 mg/kg of 80.1%. Moreover, the values for the Ki on CCK-A receptors and on CCK-B receptors were 120 nM and 1.39 nM, respectively.
`Cc1ccc2c(c1)N(CC(=O)c1ccccc1C)C(=O)C(NC(=O)Nc1cccc(C(=O)O)c1)CN2C(=O)c1cccs1` (stereo not drawn) [Example 104, 3-[3-[1-(2-toluoylmethyl)-2-oxo-5-(2-thenoyl)-8-methyl-1,3,4,5-tetrahydro-2H-1,5-benzodiazepin-3-yl]ureido]benzoic acid] had an inhibition in vivo at 1 mg/kg in experiment [1] (1 mg/kg) of 58%. Also, the inhibition constant (Ki) was 130 nM at CCK-A receptors and 0.59 nM on CCK-B receptors.
